# Laboratory results from patent US20140221354A1, “IMIDAZO [1,2-a]PYRIDINE COMPOUNDS FOR USE IN THERAPY” (EMBLEM Technology Transfer GmbH, priority 2011, published 2014).
# Test system: CellSensor® HRE-bla HCT-116 stably transfected reporter cell line
# Experiment: HIF/HRE reporter assay
# Assay type: cell-based
# Details: Homo sapiens, inhibition of activated HIF signaling response, hypoxic conditions induced with deferoxamine (DFO), 24 h incubation, blue/green emission ratio, read-out: Evaluation
# Description: Inhibition of an activated HIF signaling response under chemically-induced hypoxic conditions due to compound treatment was determined using the CellSensor® HRE-bla HCT-116 stably transfected reporter cell line from Invitrogen according to the manufacturer's instructions.
# Cells were maintained as described previously and seeded into 384-well, clear-bottom plates (Corning 3712) at 15000 cells/well in 32 μl assay medium (Opti-MEM [Invitrogen], 0.5% FBS, 100 U/ml penicillin, 100 μg/ml streptomycin, 0.1 mM non-essential amino acids [NEAA], 1 mM sodium pyruvate, 5 mM HEPES [pH 7.3]). Following a 2 h incubation period, compounds (4 μl) were subsequently added to the cells at 10× concentrations in 5% DMSO and incubated under normal conditions for 30 min. To induce hypoxic conditions, 4 μl of a 2 mM deferoxamine (DFO) solution was added to the cells followed by 24 h incubation under standard assay conditions (as described). Control wells included wells containing only medium (no cells) and wells treated with 0.5% DMSO instead of compound.
# Prior to the readout, the Substrate Loading Solution was prepared as described in the manufacturer's protocol and 10 μl added to each well. Following a further 2 h incubation period at room temperature and in the dark, fluorescence was measured at two wavelengths (blue channel: ex. 409 nm, em. 460 nm; green channel: ex. 409 nm, em. 530 nm) on a PerkinElmer Envision HTS. For the analysis, the average signal of the cell-free wells at 460 nm and 530 nm was first subtracted from the blue and green channel data, respectively. The blue/green emission ratios were then calculated for each well, dividing the background-corrected blue emission values by the background-corrected green emission values. […] values were determined from these ratios using GraphPad Prism (Prism 5, GraphPad software, Inc.).
row,EC50 [nM],SMILES
1,< 500,"O=[N+]([O-])c1ccc(-c2nc3ccc(-c4ccccc4)cn3c2CN2CCNCC2)cc1 [Example 1, 2-(4-nitrophenyl)-6-phenyl-3-(piperazin-1-ylmethyl)imidazo[1,2-a]pyridine]"
2,> 1000,"CC(=O)N1CCN(Cc2c(-c3cccc([N+](=O)[O-])c3)nc3ccc(-c4ccccc4)cn23)CC1 [Example 2, 1-(4-((2-(3-nitrophenyl)-6-phenylimidazo[1,2-a]pyridin-3-yl)methyl)piperazin-1-yl)ethanone]"
3,500 to 1000,"CC(=O)N1CCN(Cc2c(-c3ccc([N+](=O)[O-])cc3)nc3ccc(-c4ccccc4)cn23)CC1 [Example 3, 1-(4-((2-(4-nitrophenyl)-6-phenylimidazo[1,2-a]pyridin-3-yl)methyl)piperazin-1-yl)ethanone]"
4,< 500,"O=[N+]([O-])c1ccc(-c2nc3ccc(-c4ccccc4)cn3c2CN2CCCNCC2)cc1 [Example 4, 3-((1,4-diazepan-1-yl)methyl)-2-(4-nitrophenyl)-6-phenylimidazo[1,2-a]pyridine]"
5,500 to 1000,"CCCN1CCN(Cc2c(-c3ccc([N+](=O)[O-])cc3)nc3ccc(-c4ccccc4)cn23)CC1 [Example 5, 2-(4-nitrophenyl)-6-phenyl-3-((4-propylpiperazin-1-yl)methyl)imidazo[1,2-a]pyridine]"
6,500 to 1000,"CCN1CCN(Cc2c(-c3ccc([N+](=O)[O-])cc3)nc3ccc(-c4ccccc4)cn23)CC1 [Example 6, 3-((4-ethylpiperazin-1-yl)methyl)-2-(4-nitrophenyl)-6-phenylimidazo[1,2-a]pyridine]"
7,< 500,"CN1CCN(Cc2c(-c3ccc([N+](=O)[O-])cc3)nc3ccc(-c4ccccc4)cn23)CC1 [Example 7, 3-((4-methylpiperazin-1-yl)methyl)-2-(4-nitrophenyl)-6-phenylimidazo[1,2-a]pyridine]"
8,> 1000,"CS(=O)(=O)c1ccc(-c2nc3ccc(-c4ccccc4)cn3c2CN2CCCNCC2)cc1 [Example 8, 3-((1,4-diazepan-1-yl)methyl)-2-(4-(methylsulfonyl)phenyl)-6-phenylimidazo[1,2-a]pyridine]"
9,< 500,"N#Cc1ccc(-c2nc3ccc(-c4ccccc4)cn3c2CN2CCCNCC2)cc1 [Example 9, 4-(3-((1,4-diazepan-1-yl)methyl)-6-phenylimidazo[1,2-a]pyridin-2-yl)benzonitrile]"
10,> 1000,"NC(=O)c1ccc(-c2nc3ccc(-c4ccccc4)cn3c2CN2CCCNCC2)cc1 [Example 10, 4-(3-((1,4-diazepan-1-yl)methyl)-6-phenylimidazo[1,2-a]pyridin-2-yl)benzamide]"
11,< 500,"c1ccc(-c2ccc3nc(-c4ccncc4)c(CN4CCCNCC4)n3c2)cc1 [Example 11, 3-((1,4-diazepan-1-yl)methyl)-6-phenyl-2-(pyridin-4-yl)imidazo[1,2-a]pyridine]"
12,< 500,"CN1CCCN(Cc2c(-c3ccc([N+](=O)[O-])cc3)nc3ccc(-c4ccccc4)cn23)CC1 [Example 12, 3-((4-methyl-1,4-diazepan-1-yl)methyl)-2-(4-nitrophenyl)-6-phenylimidazo[1,2-a]pyridine]"
13,< 500,"O=C1CN(Cc2c(-c3ccc([N+](=O)[O-])cc3)nc3ccc(-c4ccccc4)cn23)CCN1 [Example 13, 4-((2-(4-nitrophenyl)-6-phenylimidazo[1,2-a]pyridin-3-yl)methyl)piperazin-2-one]"
14,< 500,"Clc1ccc(-c2nc3ccc(-c4ccccc4)cn3c2CN2CCCNCC2)cc1 [Example 14, 3-((1,4-diazepan-1-yl)methyl)-2-(4-chlorophenyl)-6-phenylimidazo[1,2-a]pyridine]"
15,< 500,"c1ccc(-c2ccc3nc(-c4cccnc4)c(CN4CCCNCC4)n3c2)cc1 [Example 15, 3-((1,4-diazepan-1-yl)methyl)-6-phenyl-2-(pyridin-3-yl)imidazo[1,2-a]pyridine]"
16,500 to 1000,"N#Cc1ccc(-c2nc3ccc(-c4ccccc4)cn3c2CN2CCCNCC2)cn1 [Example 16, 5-(3-((1,4-diazepan-1-yl)methyl)-6-phenylimidazo[1,2-a]pyridin-2-yl)picolinonitrile]"
17,< 500,"Cc1ccc(-c2nc3ccc(-c4ccccc4)cn3c2CN2CCCNCC2)cc1 [Example 17, 3-((1,4-diazepan-1-yl)methyl)-6-phenyl-2-(p-tolyl)imidazo[1,2-a]pyridine]"
18,< 500,"COc1ccc(-c2nc3ccc(-c4ccccc4)cn3c2CN2CCCNCC2)cc1 [Example 18, 3-((1,4-diazepan-1-yl)methyl)-2-(4-methoxyphenyl)-6-phenylimidazo[1,2-a]pyridine]"

row,EC50 [nM],SMILES
1,500 to 1000,"c1ccc(-c2ccc3nc(-c4ccccc4)c(CN4CCCNCC4)n3c2)cc1 [Example 19, 3-((1,4-diazepan-1-yl)methyl)-2,6-diphenylimidazo[1,2-a]pyridine]"
2,< 500,"N#Cc1csc(-c2nc3ccc(-c4ccccc4)cn3c2CN2CCCNCC2)c1 [Example 20, 5-(3-((1,4-diazepan-1-yl)methyl)-6-phenylimidazo[1,2-a]pyridin-2-yl)thiophene-3-carbonitrile]"
3,< 500,"N#Cc1ccc(-c2nc3ccc(-c4ccccc4)cn3c2CN2CCCNCC2)s1 [Example 21, 5-(3-((1,4-diazepan-1-yl)methyl)-6-phenylimidazo[1,2-a]pyridin-2-yl)thiophene-2-carbonitrile]"
4,< 500,"N#Cc1cccc(-c2nc3ccc(-c4ccccc4)cn3c2CN2CCCNCC2)c1 [Example 22, 3-(3-((1,4-diazepan-1-yl)methyl)-6-phenylimidazo[1,2-a]pyridin-2-yl)benzonitrile]"
5,< 500,"Cc1ccc(-c2ccc3nc(-c4ccc(C#N)cc4)c(CN4CCCNCC4)n3c2)cc1 [Example 23, 4-(3-((1,4-diazepan-1-yl)methyl)-6-(p-tolyl)imidazo[1,2-a]pyridin-2-yl)benzonitrile]"
6,< 500,"Cc1cccc(-c2ccc3nc(-c4ccc(C#N)cc4)c(CN4CCCNCC4)n3c2)c1 [Example 24, 4-(3-((1,4-diazepan-1-yl)methyl)-6-(m-tolyl)imidazo[1,2-a]pyridin-2-yl)benzonitrile]"
7,< 500,"Cc1ccccc1-c1ccc2nc(-c3ccc(C#N)cc3)c(CN3CCCNCC3)n2c1 [Example 25, 4-(3-((1,4-diazepan-1-yl)methyl)-6-(o-tolyl)imidazo[1,2-a]pyridin-2-yl)benzonitrile]"
8,> 1000,"N#Cc1ccc(-c2nc3ccc(-c4cncnc4)cn3c2CN2CCCNCC2)cc1 [Example 26, 4-(3-((1,4-diazepan-1-yl)methyl)-6-(pyrimidin-5-yl)imidazo[1,2-a]pyridin-2-yl)benzonitrile]"
9,< 500,"N#Cc1ccc(-c2nc3ccc(-c4ccncc4)cn3c2CN2CCCNCC2)cc1 [Example 27, 4-(3-((1,4-diazepan-1-yl)methyl)-6-(pyridin-4-yl)imidazo[1,2-a]pyridin-2-yl)benzonitrile]"
10,500 to 1000,"Cc1cc(-c2ccc3nc(-c4ccc(C#N)cc4)c(CN4CCCNCC4)n3c2)ccn1 [Example 28, 4-(3-((1,4-diazepan-1-yl)methyl)-6-(2-methylpyridin-4-yl)imidazo[1,2-a]pyridin-2-yl)benzonitrile]"
11,> 1000,"N#Cc1ccc(-c2nc3ccc(-c4cccnc4)cn3c2CN2CCCNCC2)cc1 [Example 29, 4-(3-((1,4-diazepan-1-yl)methyl)-6-(pyridin-3-yl)imidazo[1,2-a]pyridin-2-yl)benzonitrile]"
12,> 1000,"COc1ccc(-c2nc3ccc(-c4ccccc4)cn3c2CN2CCNC(=O)C2)cc1 [Example 30, 4-((2-(4-methoxyphenyl)-6-phenylimidazo[1,2-a]pyridin-3-yl)methyl)piperazin-2-one]"
13,< 500,"CN1CCCN(Cc2c(-c3ccc(Cl)cc3)nc3ccc(-c4ccccc4)cn23)CC1 [Example 31, 2-(4-chlorophenyl)-3-((4-methyl-1,4-diazepan-1-yl)methyl)-6-phenylimidazo[1,2-a]pyridine]"
14,> 1000,"O=C1CN(Cc2c(-c3ccc(Cl)cc3)nc3ccc(-c4ccccc4)cn23)CCN1 [Example 32, 4-((2-(4-chlorophenyl)-6-phenylimidazo[1,2-a]pyridin-3-yl)methyl)piperazin-2-one]"
15,> 1000,"N#Cc1ccc(-c2nc3ccc(-c4ccccc4)cn3c2CN2CCNC(=O)C2)cc1 [Example 33, 4-(3-((3-oxopiperazin-1-yl)methyl)-6-phenylimidazo[1,2-a]pyridin-2-yl)benzonitrile]"
16,< 500,"CN1CCCN(Cc2c(-c3ccc(C#N)cc3)nc3ccc(-c4ccccc4)cn23)CC1 [Example 34, 4-(3-((4-methyl-1,4-diazepan-1-yl)methyl)-6-phenylimidazo[1,2-a]pyridin-2-yl)benzonitrile]"
17,> 1000,"N#Cc1ccc(-c2nc3ccc(-c4ccccc4)cn3c2CN2CCNC(=O)C2)s1 [Example 35, 5-(3-((3-oxopiperazin-1-yl)methyl)-6-phenylimidazo[1,2-a]pyridin-2-yl)thiophene-2-carbonitrile]"
